Earlier results as cited in patent US9622976B2, “Pharmaceutical composition” (LEK PHARMACEUTICALS D.D., priority 2006, dated 2017).

Conditions: pH 6.8 phosphate buffer

CCCc1nc2c(C)cc(-c3nc4ccccc4n3C)cc2n1Cc1ccc(-c2ccccc2C(=O)O)cc1 [Telmisartan, 2-[4-[[4-methyl-6-(1-methylbenzoimidazol-2-yl)-2-propyl-benzoimidazol-1-yl]methyl]phenyl]benzoic acid]
solubility: ≤ 2 μg per ml
